Measurements published in patent US20230125667A1, “NOVEL TDZD ANALOGS AS AGENTS THAT DELAY, PREVENT, OR REVERSE AGE-ASSOCIATED DISEASES AND AS ANTI-CANCER AND ANTILEUKEMIC AGENTS” (United States Government as represented by the Department …, priority 2020, published 2023).
Where two headings read alike, the source gives them in different places.

Legend:
CCRF-CEM = assay: NCI-60 growth inhibition: CCRF-CEM (Leukemia); format: cell-based, human
HL-60(TB) = assay: NCI-60 growth inhibition: HL-60(TB) (Leukemia); format: cell-based, human; conditions: HL-60(TB) (Leukemia), read-out: GI50
K-562 = assay: NCI-60 growth inhibition: K-562 (Leukemia); format: cell-based, human
MOLT-4 = assay: NCI-60 growth inhibition: MOLT-4 (Leukemia); format: cell-based, human
RPMI-8226 = assay: NCI-60 growth inhibition: RPMI-8226 (Leukemia); format: cell-based, human
SR = assay: NCI-60 growth inhibition: SR (Leukemia); format: cell-based, human
EKVX = assay: NCI-60 growth inhibition: EKVX (Non-Small-Cell Lung Cancer); format: cell-based, human
HOP-92 = assay: NCI-60 growth inhibition: HOP-92 (Non-Small-Cell Lung Cancer); format: cell-based, human
NCI-H23 = assay: NCI-60 growth inhibition: NCI-H23 (Non-Small-Cell Lung Cancer); format: cell-based, human
NCI-H460 = assay: NCI-60 growth inhibition: NCI-H460 (Non-Small-Cell Lung Cancer); format: cell-based, human
COLO 205 = assay: NCI-60 growth inhibition: COLO 205 (Colon Cancer); format: cell-based, human
HCT-15 = assay: NCI-60 growth inhibition: HCT-15 (Colon Cancer); format: cell-based, human
HT29 = assay: NCI-60 growth inhibition: HT29 (Colon Cancer); format: cell-based, human
SW-620 = assay: NCI-60 growth inhibition: SW-620 (Colon Cancer); format: cell-based, human
SF-268 = assay: NCI-60 growth inhibition: SF-268 (CNS Cancer); format: cell-based, human
SF-539 = assay: NCI-60 growth inhibition: SF-539 (CNS Cancer); format: cell-based, human
SNB-19 = assay: NCI-60 growth inhibition: SNB-19 (CNS Cancer); format: cell-based, human
SNB-75 = assay: NCI-60 growth inhibition: SNB-75 (CNS Cancer); format: cell-based, human
U251 = assay: NCI-60 growth inhibition: U251 (CNS Cancer); format: cell-based, human
LOX IMVI = assay: NCI-60 growth inhibition: LOX IMVI (Melanoma); format: cell-based, human
MALME-3M = assay: NCI-60 growth inhibition: MALME-3M (Melanoma); format: cell-based, human
M14 = assay: NCI-60 growth inhibition: M14 (Melanoma); format: cell-based, human
MDA-MB-435 = assay: NCI-60 growth inhibition: MDA-MB-435 (Melanoma); format: cell-based, human
SK-MEL-2 = assay: NCI-60 growth inhibition: SK-MEL-2 (Melanoma); format: cell-based, human
SK-MEL-28 = assay: NCI-60 growth inhibition: SK-MEL-28 (Melanoma); format: cell-based, human
SK-MEL-5 = assay: NCI-60 growth inhibition: SK-MEL-5 (Melanoma); format: cell-based, human
UACC-257 = assay: NCI-60 growth inhibition: UACC-257 (Melanoma); format: cell-based, human
UACC-62 = assay: NCI-60 growth inhibition: UACC-62 (Melanoma); format: cell-based, human
IGROV1 = assay: NCI-60 growth inhibition: IGROV1 (Ovarian Cancer); format: cell-based, human
OVCAR-3 = assay: NCI-60 growth inhibition: OVCAR-3 (Ovarian Cancer); format: cell-based, human
OVCAR-4 = assay: NCI-60 growth inhibition: OVCAR-4 (Ovarian Cancer); format: cell-based, human
OVCAR-5 = assay: NCI-60 growth inhibition: OVCAR-5 (Ovarian Cancer); format: cell-based, human
OVCAR-8 = assay: NCI-60 growth inhibition: OVCAR-8 (Ovarian Cancer); format: cell-based, human
786-0 = assay: NCI-60 growth inhibition: 786-0 (Renal Cancer); format: cell-based, human
A498 = assay: NCI-60 growth inhibition: A498 (Renal Cancer); format: cell-based, human
ACHN = assay: NCI-60 growth inhibition: ACHN (Renal Cancer); format: cell-based, human
CAKI-1 = assay: NCI-60 growth inhibition: CAKI-1 (Renal Cancer); format: cell-based, human
RXF 393 = assay: NCI-60 growth inhibition: RXF 393 (Renal Cancer); format: cell-based, human
SN12C = assay: NCI-60 growth inhibition: SN12C (Renal Cancer); format: cell-based, human
TK-10 = assay: NCI-60 growth inhibition: TK-10 (Renal Cancer); format: cell-based, human
UO-31 = assay: NCI-60 growth inhibition: UO-31 (Renal Cancer); format: cell-based, human
PC-3 = assay: NCI-60 growth inhibition: PC-3 (Prostate Cancer); format: cell-based, human
DU-145 = assay: NCI-60 growth inhibition: DU-145 (Prostate Cancer); format: cell-based, human
MCF7 = assay: NCI-60 growth inhibition: MCF7 (Breast Cancer); format: cell-based, human
MDA-MB-231/ATCC = assay: NCI-60 growth inhibition: MDA-MB-231/ATCC (Breast Cancer); format: cell-based, human
HS 578T = assay: NCI-60 growth inhibition: HS 578T (Breast Cancer); format: cell-based, human
BT-549 = assay: NCI-60 growth inhibition: BT-549 (Breast Cancer); format: cell-based, human
T-47D = assay: NCI-60 growth inhibition: T-47D (Breast Cancer); format: cell-based, human
MDA-MB-468 = assay: NCI-60 growth inhibition: MDA-MB-468 (Breast Cancer); format: cell-based, human; conditions: MDA-MB-468 (Breast Cancer), read-out: GI50
[1] = test system: MV4-11 cell line (myelomonocytic leukemia); conditions: MV4-11 cells; for LD50, 7AAD (μM) 24 h / LD50, Alamar blue (μM) 24 h / LD50, YOPRO (μM) 24 h: MMB-TDZD analogs (Table 2)
HCT-116 = assay: NCI-60 growth inhibition: HCT-116 (Colon Cancer)
NCI-H522 = assay: NCI-60 growth inhibition: NCI-H522 (Non-Small-Cell Lung Cancer)

SMILES: C=C1C(=O)O[C@H]2[C@H]1CC/C(COC(=O)NCc1ccc(Cn3c(=O)sn(CCCl)c3=O)cc1)=C\CC[C@@]1(C)O[C@@H]21 [BSK-140]
- GI50 (CCRF-CEM): 1.73 µM
- GI50 (HL-60(TB)): 1.91 µM
- GI50 (K-562): 2.07 µM
- GI50 (MOLT-4): 1.85 µM
- GI50 (RPMI-8226): 2.37 µM
- GI50 (SR): 1.48 µM
- GI50 (EKVX): 1.99 µM
- GI50 (HOP-92): 1.5 µM
- GI50 (NCI-H23): 2.18 µM
- GI50 (NCI-H460): 5.1 µM
- GI50 (COLO 205): 1.84 µM
- GI50 (HCT-15): 1.85 µM
- GI50 (HT29): 2.16 µM
- GI50 (SW-620): 1.17 µM
- GI50 (SF-268): 3.73 µM
- GI50 (SF-539): 1.82 µM
- GI50 (SNB-19): 11.9 µM
- GI50 (SNB-75): 7.65 µM
- GI50 (U251): 6.79 µM
- GI50 (LOX IMVI): 1.69 µM
- GI50 (MALME-3M): 1.72 µM
- GI50 (M14): 1.82 µM
- GI50 (MDA-MB-435): 1.74 µM
- GI50 (SK-MEL-2): 10.6 µM
- GI50 (SK-MEL-28): 1.74 µM
- GI50 (SK-MEL-5): 1.7 µM
- GI50 (UACC-257): 1.85 µM
- GI50 (UACC-62): 1.86 µM
- GI50 (IGROV1): 2.5 µM
- GI50 (OVCAR-3): 1.53 µM
- GI50 (OVCAR-4): 1.92 µM
- GI50 (OVCAR-5): 1.97 µM
- GI50 (OVCAR-8): 2.04 µM
- GI50 (786-0): 1.79 µM
- GI50 (A498): 11.5 µM
- GI50 (ACHN): 1.54 µM
- GI50 (CAKI-1): 1.76 µM
- GI50 (RXF 393): 1.18 µM
- GI50 (SN12C): 2.01 µM
- GI50 (TK-10): 1.77 µM
- GI50 (UO-31): 1.65 µM
- GI50 (PC-3): 8.09 µM
- GI50 (DU-145): 1.72 µM
- GI50 (MCF7): 1.91 µM
- GI50 (MDA-MB-231/ATCC): 1.89 µM
- GI50 (HS 578T): 12.1 µM
- GI50 (BT-549): 1.45 µM
- GI50 (T-47D): 1.97 µM
- GI50 (MDA-MB-468): 1.78 µM
- LD50, 7AAD (μM) 24 h [1]: 4.42 µM
- LD50, Alamar blue (μM) 24 h [1]: 1.50 µM
- LD50, YOPRO (μM) 24 h [1]: 2.88 µM
- GI50 (HCT-116; HCT-116 (Colon Cancer)): 1.62 µM
- GI50 (NCI-H522; NCI-H522 (Non-Small-Cell Lung Cancer)): 1.38 µM

SMILES: C=C1C(=O)O[C@H]2[C@H]1CC/C(COC(=O)NCc1ccc(Cn3c(=O)sn(-c4ccc(OC)cc4)c3=O)cc1)=C\CC[C@@]1(C)O[C@@H]21 [BSK-271]
- GI50 (CCRF-CEM; Homo sapiens): 0.56 µM
- GI50 (HL-60(TB); Homo sapiens): 2.12 µM
- GI50 (MOLT-4; Homo sapiens): 1.93 µM
- GI50 (RPMI-8226; Homo sapiens): 2.01 µM
- GI50 (SR; Homo sapiens): 0.53 µM
- GI50 (EKVX; Homo sapiens): 3.5 µM
- GI50 (HOP-92; Homo sapiens): 1.61 µM
- GI50 (NCI-H23; Homo sapiens): 2.97 µM
- GI50 (NCI-H460; Homo sapiens): 3.7 µM
- GI50 (COLO 205; Homo sapiens): 1.85 µM
- GI50 (HCT-15; Homo sapiens): 1.68 µM
- GI50 (HT29; Homo sapiens, HT-29): 1.96 µM
- GI50 (SW-620; Homo sapiens): 1.77 µM
- GI50 (SF-268; Homo sapiens): 3.14 µM
- GI50 (SF-539; Homo sapiens): 1.96 µM
- GI50 (SNB-19; Homo sapiens): 11.7 µM
- GI50 (SNB-75; Homo sapiens): 3.44 µM
- GI50 (U251; Homo sapiens, U-251): 4.11 µM
- GI50 (LOX IMVI; Homo sapiens): 1.73 µM
- GI50 (MALME-3M; Homo sapiens): 1.81 µM
- GI50 (M14; Homo sapiens): 2.19 µM
- GI50 (MDA-MB-435; Homo sapiens): 1.83 µM
- GI50 (SK-MEL-2; Homo sapiens): 3.19 µM
- GI50 (SK-MEL-28; Homo sapiens): 1.97 µM
- GI50 (SK-MEL-5; Homo sapiens): 12 µM
- GI50 (UACC-257; Homo sapiens): 2.03 µM
- GI50 (UACC-62; Homo sapiens): 1.86 µM
- GI50 (IGROV1; Homo sapiens, IGROV-1): 2.85 µM
- GI50 (OVCAR-3; Homo sapiens): 1.61 µM
- GI50 (OVCAR-4; Homo sapiens): 1.64 µM
- GI50 (OVCAR-5; Homo sapiens): 2.06 µM
- GI50 (OVCAR-8; Homo sapiens): 2.37 µM
- GI50 (786-0; Homo sapiens): 2.05 µM
- GI50 (A498; Homo sapiens): 5.65 µM
- GI50 (ACHN; Homo sapiens): 1.73 µM
- GI50 (CAKI-1; Homo sapiens): 2.34 µM
- GI50 (SN12C; Homo sapiens): 2.14 µM
- GI50 (TK-10; Homo sapiens): 1.91 µM
- GI50 (UO-31; Homo sapiens): 1.56 µM
- GI50 (PC-3; Homo sapiens): 2.19 µM
- GI50 (DU-145; Homo sapiens): 1.81 µM
- GI50 (MCF7; Homo sapiens): 1.77 µM
- GI50 (MDA-MB-231/ATCC; Homo sapiens): 1.97 µM
- GI50 (HS 578T; Homo sapiens): 2.92 µM
- GI50 (BT-549; Homo sapiens): 4.37 µM
- GI50 (T-47D; Homo sapiens, T47D): 1.86 µM
- GI50 (MDA-MB-468; Homo sapiens): 1.53 µM
- LD50, 7AAD (μM) 24 h [1]: 1.74 µM
- LD50, Alamar blue (μM) 24 h [1]: 1.20 µM
- LD50, YOPRO (μM) 24 h [1]: 2.07 µM
- LD50 ([1]; values in text): 680 nM
- GI50 (HCT-116; Homo sapiens, HCT-116): 1.93 µM
- GI50 (NCI-H522; Homo sapiens, NCI-H522): 1.67 µM
